For assay [1], the target named is T1, G-protein coupled bile acid receptor 1 (Homo sapiens, UniProt Q8TDU6).
T1 sequence (Q8TDU6 whole entry): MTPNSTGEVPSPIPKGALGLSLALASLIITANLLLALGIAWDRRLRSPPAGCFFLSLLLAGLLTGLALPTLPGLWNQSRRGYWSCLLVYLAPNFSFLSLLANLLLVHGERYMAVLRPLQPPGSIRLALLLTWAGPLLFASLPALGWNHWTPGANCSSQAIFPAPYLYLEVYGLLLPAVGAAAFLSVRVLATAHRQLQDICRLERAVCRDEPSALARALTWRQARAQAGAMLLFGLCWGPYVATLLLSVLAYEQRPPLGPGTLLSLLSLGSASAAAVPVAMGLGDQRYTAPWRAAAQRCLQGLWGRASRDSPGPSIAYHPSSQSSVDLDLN
As to the kind of experiment: Agonist activity at TGR5 (unknown origin) by TR-FRET assay. The class given is functional.

In assay [2] the target is T1, G-protein coupled bile acid receptor 1. As to the kind of experiment: Agonist activity at TGR5 (unknown origin) expressed in HEK293T cells assessed as cAMP level by TR-FRET analysis. The class given is functional, cell-based.
The target is the same in assay [3]. As to the kind of experiment: Agonist activity at human TGR5 expressed in HEK293 cells. The class given is functional, cell-based.
Assay [4] shares this target. As to the kind of experiment: Agonist activity at human TGR5. The class given is functional.

In assay [1], `O=C(c1cccnc1Oc1cc(Cl)ccc1Cl)N1CCN(C2CC2)c2ccccc21` registered an EC50 of 10 nM.
Consider `COc1ccc(C(C)(C)c2cn(-c3ccc(F)cc3)c(SCc3c(F)cccc3Cl)n2)cc1OC`, for which the EC50 in assay [2] turned out to be 25 nM.
In turn, `O=C(c1cccnc1Oc1cc(Cl)ccc1Cl)N1CCCc2ccc(F)cc21` displayed an EC50 in assay [1] of 50 nM.
`O=C(c1cccnc1Oc1cc(Cl)ccc1Cl)N1CCCc2cc(F)c(F)cc21` displayed an EC50 in assay [1] of 50 nM.
For `Fc1cccc(F)c1-c1ccncc1CN1C(c2ccco2)=NOC1c1cc(C(F)(F)F)cc(C(F)(F)F)c1Cl` (configuration not stated), a half-maximal response in assay [3] (EC50) required 15 nM.
Turning to `COc1ccc(S(=O)(=O)N2CCN(S(=O)(=O)c3ccc(OC)c(OC)c3)CC2)cc1OC`, the EC50 in assay [4] came out at 1300 nM.
As to `O=C(c1cccnc1Oc1cc(Cl)ccc1Cl)N1CCCc2cc(F)ccc21`, the EC50 in assay [1] came to 20 nM.

For the origin of these results see ChEMBL document CHEMBL6078626, “Recent advancements in the structural exploration of TGR5 agonists for diabetes treatment” (RSC Med Chem, 2024).
